Source: patent publication US8106055B2, “Substituted amide compounds” (Gruenenthal GmbH, priority 2007, dated 2012)
Read-outs that look alike come from different tables or passages of the source.

Tests used:
[1] = target: T1, human bradykinin 1 receptor (B1R) (Homo sapiens, UniProt P46663); assay: Functional investigation on the human bradykinin 1 receptor (B1R), Ca2+ FLIPR assay in CHO K1 hB1R cells; assay type: cell-based; details: CHO-K1, B1R antagonism human, test substance 10 μM, read-out: B1R Ant. h [10 μM] % Inhibition
T1 construct: expressed in transfected cells; host or cells: CHO K1 cells
T1 sequence (P46663 1-353): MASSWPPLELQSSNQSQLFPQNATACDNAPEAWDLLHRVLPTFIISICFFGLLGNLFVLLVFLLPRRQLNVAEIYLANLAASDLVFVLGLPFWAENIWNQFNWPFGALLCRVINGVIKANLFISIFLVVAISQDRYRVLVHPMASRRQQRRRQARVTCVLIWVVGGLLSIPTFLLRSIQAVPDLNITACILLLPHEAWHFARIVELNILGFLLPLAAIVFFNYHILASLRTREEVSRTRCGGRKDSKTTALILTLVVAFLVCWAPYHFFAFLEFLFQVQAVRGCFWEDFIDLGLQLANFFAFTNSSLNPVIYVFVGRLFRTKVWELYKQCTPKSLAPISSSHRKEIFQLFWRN
Method in brief: (§1)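 Peak Ca2+-dependent fluorescence in B1R-transfected CHO K1 cells measures antagonism of an EC80 agonist challenge given 10-20 min after compound. Agonist is Lys-Des-Arg9-bradykinin for human, Des-Arg9-bradykinin for rat receptor.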

[2] = target: T2, bradykinin 1 receptor (B1R) of the rat (Rattus norvegicus, UniProt P97583); assay: Functional investigation on the rat bradykinin 1 receptor (B1R), Ca2+ FLIPR assay in CHO K1 rB1R cells; assay type: cell-based; details: CHO-K1, B1R antagonism rat, test substance 10 μM, read-out: B1R Ant. r [10 μM] % Inhibition
T2 construct: expressed in transfected cells; host or cells: CHO K1 cells
T2 sequence (P97583 1-337): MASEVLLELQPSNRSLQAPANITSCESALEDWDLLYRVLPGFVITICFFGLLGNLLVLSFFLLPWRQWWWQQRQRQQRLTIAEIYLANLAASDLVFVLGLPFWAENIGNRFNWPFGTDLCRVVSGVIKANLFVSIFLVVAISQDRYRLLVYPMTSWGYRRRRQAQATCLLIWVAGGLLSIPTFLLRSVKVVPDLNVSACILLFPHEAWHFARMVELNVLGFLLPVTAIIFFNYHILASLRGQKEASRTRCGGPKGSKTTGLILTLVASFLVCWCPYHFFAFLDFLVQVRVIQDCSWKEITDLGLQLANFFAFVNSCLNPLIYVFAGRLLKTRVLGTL
Method in brief: as §1

human μ opiate receptor = target: T3, human μ opiate receptor (Homo sapiens, UniProt P35372); assay: Affinity for the human μ opiate receptor ([3H]-naloxone displacement, CHO-K1 receptor membrane preparation, SPA); assay type: binding; details: 1.5 h, Table 3, to be read in the same way as Table 1; test concentration 1 μM; read-out: μ
T3 construct: purchased PerkinElmer Life Sciences, Zaventem, Belgium RB-HOM; host or cells: CHO-K1 cells (membrane preparation)
T3 sequence (P35372 whole entry): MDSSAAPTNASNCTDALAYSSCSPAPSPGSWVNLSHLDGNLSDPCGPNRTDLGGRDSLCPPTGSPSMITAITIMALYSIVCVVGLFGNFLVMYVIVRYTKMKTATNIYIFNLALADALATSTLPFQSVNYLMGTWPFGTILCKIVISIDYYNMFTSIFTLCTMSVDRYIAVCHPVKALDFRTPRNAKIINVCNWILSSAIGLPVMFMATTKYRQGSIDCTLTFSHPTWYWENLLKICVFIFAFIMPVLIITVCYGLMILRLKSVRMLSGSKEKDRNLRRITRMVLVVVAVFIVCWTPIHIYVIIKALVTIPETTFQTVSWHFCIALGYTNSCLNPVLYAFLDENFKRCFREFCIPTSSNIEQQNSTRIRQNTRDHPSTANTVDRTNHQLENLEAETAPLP
Method in brief: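 At 1 μmol/l, compounds were scored for % displacement of 1 nmol/l [3H]-naloxone from CHO-K1-expressed human μ opiate receptor in a homogeneous SPA format (90 min, room temperature).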

[3] = % inhibition compared with the maximum achievable inhibition

SMILES	inhibition at 10 µM [1, 3]	inhibition at 10 µM [2, 3]	inhibition at 1 µM (human μ opiate receptor)	inhibition at 10 µM ([1]; Ca2+ FLIPR, CHO K1 hB1R cells)	inhibition at 10 µM ([2]; Ca2+ FLIPR, CHO K1 rB1R cells)
COc1cc(C)c(S(=O)(=O)N2CCCCC2COCC(=O)N2CCC(C(c3ccc(F)cc3)N3CCN(C)CC3)CC2)c(C)c1 (stereo not drawn) [Example 805, 1-(4-((4-fluorophenyl)(4-methylpiperazin-1-yl)methyl)piperidin-1-yl)-2-((1-(4-methoxy-2,6-dimethylphenylsulfonyl)piperidin-2-yl)methoxy)ethanone]	103%	99%	4%	–	–
COc1cc(C)c(S(=O)(=O)N2CCCC2COCC(=O)NC2CCC(C(c3ccccc3)N3CCCC3)CC2)c(C)c1 (stereo not drawn) [Example 632, 2-((1-(4-methoxy-2,6-dimethylphenylsulfonyl)pyrrolidin-2-yl)methoxy)-N-(4-(phenyl(pyrrolidin-1-yl)methyl)cyclohexyl)acetamide]	–	–	68%	105%	75%
O=C(COC1CCCN(S(=O)(=O)c2c(Cl)cc(Cl)cc2Cl)C1)NC1CCC(C(c2ccccc2)N2CCOCC2)CC1 (stereo not drawn) [Example 691, N-(4-(morpholino(phenyl)methyl)cyclohexyl)-2-(1-(2,4,6-trichlorophenylsulfonyl)piperidin-3-yloxy)acetamide]	–	–	58%	10%	6%
COc1cc(C)c(S(=O)(=O)N2CCCC(COCC(=O)NC3CCC(C(c4ccccc4)N4CCOCC4)CC3)C2)c(C)c1 (stereo not drawn) [Example 701, 2-((1-(4-methoxy-2,6-dimethylphenylsulfonyl)piperidin-3-yl)methoxy)-N-(4-(morpholino(phenyl)methyl)cyclohexyl)acetamide]	–	–	2%	16%	49%
CN(CCOCC(=O)NCC1CCC(C(CCc2ccccc2)N2CCCC2)CC1)S(=O)(=O)c1ccc(Cl)cc1Cl (stereo not drawn) [Example 717, 2-(2-(2,4-dichloro-N-methylphenylsulfonamido)ethoxy)-N-((4-(3-phenyl-1-(pyrrolidin-1-yl)propyl)cyclohexyl)methyl)acetamide]	–	–	22%	100%	88%
COc1cc(C)c(S(=O)(=O)N2CCCCC2COCC(=O)NCC2CCC(C(CCc3ccccc3)N3CCOCC3)CC2)c(C)c1 (stereo not drawn) [Example 753, 2-((1-(4-methoxy-2,6-dimethylphenylsulfonyl)piperidin-2-yl)methoxy)-N-((4-(1-morpholino-3-phenylpropyl)cyclohexyl)methyl)acetamide]	–	–	17%	104%	103%
O=C(COC1CCCN(S(=O)(=O)c2c(Cl)cc(Cl)cc2Cl)C1)NCC1CCC(C(CCc2ccccc2)N2CCOCC2)CC1 (stereo not drawn) [Example 747, N-((4-(1-morpholino-3-phenylpropyl)cyclohexyl)methyl)-2-(1-(2,4,6-trichlorophenylsulfonyl)piperidin-3-yloxy)acetamide]	–	–	23%	24%	32%
COc1cc(C)c(S(=O)(=O)N2CCCC2COCC(=O)NC2CCC(C(CCc3ccccc3)N3CCOCC3)CC2)c(C)c1 (stereo not drawn) [Example 676, 2-((1-(4-methoxy-2,6-dimethylphenylsulfonyl)pyrrolidin-2-yl)methoxy)-N-(4-(1-morpholino-3-phenylpropyl)cyclohexyl)acetamide]	–	–	10%	93%	106%
COc1cc(C)c(S(=O)(=O)N2CCCC(OCC(=O)NC3CCC(C(c4ccccc4)N4CCOCC4)CC3)C2)c(C)c1 (stereo not drawn) [Example 693, 2-(1-(4-methoxy-2,6-dimethylphenylsulfonyl)piperidin-3-yloxy)-N-(4-(morpholino(phenyl)methyl)cyclohexyl)acetamide]	–	–	9%	26%	50%
COc1cc(C)c(S(=O)(=O)N(C)CCOCC(=O)NCC2CCC(C(c3ccccc3)N3CCOCC3)CC2)c(C)c1 (stereo not drawn) [Example 718, 2-(2-(4-methoxy-N,2,6-trimethylphenylsulfonamido)ethoxy)-N-((4-(morpholino(phenyl)methyl)cyclohexyl)methyl)acetamide]	–	–	4%	105%	96%
O=C(COCC1CCCN(S(=O)(=O)c2c(Cl)cc(Cl)cc2Cl)C1)NCC1CCC(C(CCc2ccccc2)N2CCCC2)CC1 (stereo not drawn) [Example 759, N-((4-(3-phenyl-1-(pyrrolidin-1-yl)propyl)cyclohexyl)methyl)-2-((1-(2,4,6-trichlorophenylsulfonyl)piperidin-3-yl)methoxy)acetamide]	–	–	87%	100%	56%
CN(CCOCC(=O)NC1CCC(C(CCc2ccccc2)N2CCOCC2)CC1)S(=O)(=O)c1ccc(Cl)cc1Cl (stereo not drawn) [Example 660, 2-(2-(2,4-dichloro-N-methylphenylsulfonamido)ethoxy)-N-(4-(1-morpholino-3-phenylpropyl)cyclohexyl)acetamide]	–	–	4%	30%	12%
O=C(COCC1CCCCN1S(=O)(=O)c1c(Cl)cc(Cl)cc1Cl)NC1CCC(C(c2ccccc2)N2CCCC2)CC1 (stereo not drawn) [Example 653, N-(4-(phenyl(pyrrolidin-1-yl)methyl)cyclohexyl)-2-((1-(2,4,6-trichlorophenylsulfonyl)piperidin-2-yl)methoxy)acetamide]	–	–	94%	101%	95%
O=C(COC1CCCN(S(=O)(=O)c2c(Cl)cc(Cl)cc2Cl)C1)NC1CCC(C(c2ccccc2)N2CCCC2)CC1 (stereo not drawn) [Example 631, N-(4-(phenyl(pyrrolidin-1-yl)methyl)cyclohexyl)-2-(1-(2,4,6-trichlorophenylsulfonyl)piperidin-3-yloxy)acetamide]	–	–	88%	92%	87%
COc1cc(C)c(S(=O)(=O)N(C)CCOCC(=O)N2CCC(C(Cc3ccccc3)N3CCN(C)CC3)CC2)c(C)c1 (stereo not drawn) [Example 803, 4-methoxy-N,2,6-trimethyl-N-(2-(2-(4-(1-(4-methylpiperazin-1-yl)-2-phenylethyl)piperidin-1-yl)-2-oxoethoxy)ethyl)benzenesulfonamide]	108%	99%	13%	–	–
COc1cc(C)c(S(=O)(=O)N2CCCC(COCC(=O)NC3CCC(C(c4ccccc4)N4CCCC4)CC3)C2)c(C)c1 (stereo not drawn) [Example 654, 2-((1-(4-methoxy-2,6-dimethylphenylsulfonyl)piperidin-3-yl)methoxy)-N-(4-(phenyl(pyrrolidin-1-yl)methyl)cyclohexyl)acetamide]	–	–	53%	80%	46%
CN(CCOCC(=O)NCC1CCC(C(c2ccccc2)N2CCOCC2)CC1)S(=O)(=O)c1c(Cl)cc(Cl)cc1Cl (stereo not drawn) [Example 639, N-((4-(morpholino(phenyl)methyl)cyclohexyl)methyl)-2-(2-(2,4,6-trichloro-N-methylphenylsulfonamido)ethoxy)acetamide]	–	–	3%	53%	41%
O=C(COC1CCN(S(=O)(=O)c2c(Cl)cc(Cl)cc2Cl)C1)NCC1CCC(C(CCc2ccccc2)N2CCCC2)CC1 (stereo not drawn) [Example 723, N-((4-(3-phenyl-1-(pyrrolidin-1-yl)propyl)cyclohexyl)methyl)-2-(1-(2,4,6-trichlorophenylsulfonyl)pyrrolidin-3-yloxy)acetamide]	–	–	35%	90%	40%
COc1cc(C)c(S(=O)(=O)N2CCCC(COCC(=O)NCC3CCC(C(c4ccccc4)N4CCOCC4)CC3)C2)c(C)c1 (stereo not drawn) [Example 744, 2-((1-(4-methoxy-2,6-dimethylphenylsulfonyl)piperidin-3-yl)methoxy)-N-((4-(morpholino(phenyl)methyl)cyclohexyl)methyl)acetamide]	–	–	13%	18%	40%
